The values that follow come from ChEMBL document CHEMBL3045684, “Compatibility of traditional and novel acaricides with bumblebees (Bombus terrestris): a first laboratory assessment of toxicity and sublethal effects” (Pest Manag Sci, 2010).

The source made the active and inactive calls. The rule behind the calls is not given here. Where only a bound is given, the exact number is not on record here.

For experiment [1], the system named is Bombus terrestris. Briefly: Toxicity against worker Bombus terrestris (bumblebee) assessed as reduction in reproduction at 125 mg a.i./l, po administered through sugar water for 11 weeks measured once a week for 11 weeks relative to control. The experiment is classed as functional, organism-based.
The test system of experiment [2] is Bombus terrestris. Briefly: Contact toxicity against worker Bombus terrestris (bumblebee) assessed as reduction in reproduction at 125 mg a.i./l applied on the dorsal thorax for 11 weeks measured once a week for 11 weeks relative to control. The experiment is classed as functional, organism-based.
For experiment [3], the system named is Bombus terrestris. Briefly: Toxicity against worker Bombus terrestris (bumblebee) assessed as mortality at 125 mg a.i./l, po administered through sugar water for 11 weeks measured everyday for 3 days followed by once a week for 11 weeks. It counts as functional.
Experiment [4] has as its system Bombus terrestris. Briefly: Contact toxicity against worker Bombus terrestris (bumblebee) assessed as mortality at 125 mg a.i./l applied on the dorsal thorax for 11 weeks measured everyday for 3 days followed by once a week for 11 weeks. It counts as functional.
Experiment [5] relates to Bombus terrestris. Briefly: Toxicity against worker Bombus terrestris (bumblebee) assessed as mortality at 125 mg a.i./l, po administered through pollen for 11 weeks measured everyday for 3 days followed by once a week for 11 weeks. The experiment is classed as functional, organism-based.
For experiment [6], the system named is Bombus terrestris. Briefly: Toxicity against worker Bombus terrestris (bumblebee) assessed as reduction in reproduction at 125 mg a.i./l, po administered through pollen for 11 weeks measured once a week for 11 weeks. The experiment is classed as functional, organism-based.
For experiment [7], the system named is Bombus terrestris. Briefly: Toxicity against worker Bombus terrestris (bumblebee) assessed as mortality at 75 mg a.i./l, po administered through sugar water for 11 weeks measured everyday for 3 days followed by once a week for 11 weeks. The experiment is classed as functional.
Experiment [8] has as its system Bombus terrestris. Briefly: Toxicity against worker Bombus terrestris (bumblebee) assessed as reduction in reproduction at 75 mg a.i./l, po administered through pollen for 11 weeks measured once a week for 11 weeks. It counts as functional, organism-based.
The test system of experiment [9] is Bombus terrestris. Briefly: Contact toxicity against worker Bombus terrestris (bumblebee) assessed as mortality at 75 mg a.i./l applied on the dorsal thorax for 11 weeks measured everyday for 3 days followed by once a week for 11 weeks. It counts as functional.
Experiment [10] deals with Bombus terrestris. Briefly: Toxicity against worker Bombus terrestris (bumblebee) assessed as mortality at 75 mg a.i./l, po administered through sugar water measured after 9 to 11 weeks. The experiment is classed as functional, organism-based.
Experiment [11] has as its system Bombus terrestris. Briefly: Toxicity against worker Bombus terrestris (bumblebee) assessed as reduction in reproduction at 75 mg a.i./l, po administered through sugar water for 11 weeks measured once a week for 11 weeks relative to control. It counts as functional, organism-based.
For experiment [12], the system named is Bombus terrestris. Briefly: Contact toxicity against worker Bombus terrestris (bumblebee) assessed as reduction in reproduction at 75 mg a.i./l applied on the dorsal thorax for 11 weeks measured once a week for 11 weeks relative to control. It counts as functional, organism-based.
Experiment [13] deals with Bombus terrestris. Briefly: Contact toxicity against worker Bombus terrestris (bumblebee) assessed as mortality at 75 mg a.i./l applied on the dorsal thorax measured up to 1 week. It counts as functional, organism-based.
For experiment [14], the system named is Bombus terrestris. Briefly: Toxicity against worker Bombus terrestris (bumblebee) assessed as mortality at 75 mg a.i./l, po administered through pollen for 11 weeks measured everyday for 3 days followed by once a week for 11 weeks. It counts as functional.
For experiment [15], the system named is Bombus terrestris. Briefly: Toxicity against worker Bombus terrestris (bumblebee) assessed as mortality at 400 mg a.i./l, po administered through sugar water for 11 weeks measured everyday for 3 days followed by once a week for 11 weeks. The experiment is classed as functional.
In experiment [16] the test system is Bombus terrestris. Briefly: Toxicity against worker Bombus terrestris (bumblebee) assessed as reduction in reproduction at 400 mg a.i./l, po administered through sugar water for 11 weeks measured once a week for 11 weeks relative to control. It counts as functional, organism-based.
For experiment [17], the system named is Bombus terrestris. Briefly: Toxicity against worker Bombus terrestris (bumblebee) assessed as mortality at 400 mg a.i./l, po administered through sugar water measured up to 1 week. The experiment is classed as functional, organism-based.
The subject of experiment [18] is Bombus terrestris. Briefly: Toxicity against worker Bombus terrestris (bumblebee) assessed as mortality at 400 mg a.i./l, po administered through pollen for 11 weeks measured everyday for 3 days followed by once a week for 11 weeks. The experiment is classed as functional.
Experiment [19] has as its system Bombus terrestris. Briefly: Contact toxicity against worker Bombus terrestris (bumblebee) assessed as mortality at 400 mg a.i./l applied on the dorsal thorax for 11 weeks measured everyday for 3 days followed by once a week for 11 weeks. It counts as functional.
Experiment [20] relates to Bombus terrestris. Briefly: Contact toxicity against worker Bombus terrestris (bumblebee) assessed as reduction in reproduction at 400 mg a.i./l applied on the dorsal thorax for 11 weeks measured once a week for 11 weeks relative to control. The experiment is classed as functional, organism-based.
The test system of experiment [21] is Bombus terrestris. Briefly: Toxicity against worker Bombus terrestris (bumblebee) assessed as reduction in reproduction at 400 mg a.i./l, po administered through pollen for 11 weeks measured once a week for 11 weeks. It counts as functional. Set-up: scale not given: the % may be the effect or the level left.

The mortality is the percentage killed. For the compound `O=C(NC(=O)c1c(F)cccc1F)Nc1ccc(CO/N=C(/c2ccc(Cl)cc2)C2CC2)cc1` [FLUCYCLOXURON], the result in experiment [1] and in experiment [5] was inactive. The result in [2] and in experiment [6] was Active. The mortality at 125 µg/mL in [3] was 25%; in [4] it was less than 25%.
Regarding `CC(C)(C)c1ccc(CSc2cnn(C(C)(C)C)c(=O)c2Cl)cc1` [PYRIDABEN], the mortality at 75 µg/mL in [7] came out at 95%; in experiment [9], 50%; in experiment [14], 90%. Besides, the result in experiment [8], in experiment [10], in [11] and in experiment [13] was Active. Moreover, the outcome in [12] was inactive.
As to `Cc1ccc(/N=C/N(C)/C=N/c2ccc(C)cc2C)c(C)c1` [AMITRAZ], the mortality at 400 µg/mL in experiment [15] was 95%; in experiment [18] it was 90%; in experiment [19], less than 25%. Further, the outcome in experiment [16] and in [17] was Active. Further, in experiment [20], the result was inactive. Also, the Activity in experiment [21] was determined as 50%.
